In BindingDB's records for doi:10.7270/Q2251GJ9 (The Scripps Research Institute Molecular Screening Center, 2007) one finds EC50 data, which are given here for 55 compounds.

In general, EC50 refers to the concentration that produces a half-maximal response.

Structures can show the parent of a compound that is named as a salt.

Chain of Sphingosine 1-phosphate receptor 1 (P21453 whole entry): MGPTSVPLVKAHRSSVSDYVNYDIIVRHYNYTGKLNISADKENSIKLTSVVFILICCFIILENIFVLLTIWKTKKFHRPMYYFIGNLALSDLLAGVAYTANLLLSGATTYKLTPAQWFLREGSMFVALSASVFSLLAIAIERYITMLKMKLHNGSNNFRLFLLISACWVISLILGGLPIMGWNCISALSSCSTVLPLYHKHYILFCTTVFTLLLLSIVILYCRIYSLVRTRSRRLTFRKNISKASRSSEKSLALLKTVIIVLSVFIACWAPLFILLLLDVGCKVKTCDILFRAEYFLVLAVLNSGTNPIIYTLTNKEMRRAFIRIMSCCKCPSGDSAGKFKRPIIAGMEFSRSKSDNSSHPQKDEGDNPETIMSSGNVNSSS

One test addresses Sphingosine 1-phosphate receptor 1 (Homo sapiens, UniProt P21453). Briefly: S1P1 receptor agonists, dose response, cell-based, agonist mode, 60K MLSMR set (AID 468).
Settings: not given
Take `Cc1ccc2[nH]c3c(N4CCCCCC4)ncnc3c2c1` [4-(azepan-1-yl)-8-methyl-5H-pyrimido[5,4-b]indole]: the EC50 was 4.15 µM.
The same measure, in the same setting: under `CCCCn1nnnc1SCC(=O)c1ccc(C)c(C)c1` [2-(1-Butyl-1H-tetrazol-5-ylsulfanyl)-1-(3,4-dimethyl-phenyl)-ethanone] stands 5.96 µM.
The same measure, in the same setting: under `O=C(Nc1ccc(-c2noc(CCc3ccccc3)n2)cc1)c1cccnc1` [MLS000047253] stands 3.6 µM; under `Cc1cc(C(=O)CSc2nnnn2-c2ccc(O)cc2)c(C)n1Cc1ccc2c(c1)OCO2` [1-(2,5-dimethyl-1-piperonyl-pyrrol-3-yl)-2-[[1-(4-hydroxyphenyl)tetrazol-5-yl]thio]ethanone], 5.91 µM; under `COc1ccc(-c2nc(-c3ccncc3)no2)cc1OC` [5-(3,4-dimethoxyphenyl)-3-(4-pyridyl)-1,2,4-oxadiazole], 1.85 µM.
`COc1ccc(-c2nc(-c3ccccc3OC)no2)cc1OC` [5-(3,4-dimethoxyphenyl)-3-(2-methoxyphenyl)-1,2,4-oxadiazole]: the EC50 was 0.166 µM.
On the same count and under the same terms, then `CCCc1cc(C(=O)Nc2sc(C)c(CC)c2C#N)no1` [MLS000116385], with 3.73 µM; and `COc1ccccc1OCc1nc(C#N)c(N2CC(C)CC(C)C2)o1` (stereo not given) [5-(3,5-dimethyl-1-piperidinyl)-2-[(2-methoxyphenoxy)methyl]-4-oxazolecarbonitrile], with 4.02 µM.
In turn, `Nc1ccc(N2CCCCCC2)cc1` [4-(1-azepanyl)aniline;hydrochloride] had an EC50 of more than 10 µM.
`Clc1ccc(NCn2cncn2)nc1` returned a concentration for a half-maximal effect (EC50) of more than 95 µM.
On the same count and under the same terms, then `Cc1ccccc1-c1nnc(SCc2ccccc2F)o1` [2-[(2-fluorobenzyl)thio]-5-(2-methylphenyl)-1,3,4-oxadiazole], with 1.63 µM; and `O=C(C1CCCN1S(=O)(=O)c1cccc2cccnc12)N1CCN(c2ccccc2)CC1` (stereo not given) [(4-phenyl-1-piperazinyl)-[1-(8-quinolinylsulfonyl)-2-pyrrolidinyl]methanone], with more than 95 µM; and `CCc1c(C)nc2ncnn2c1NCCc1ccc(OC)cc1` [(6-Ethyl-5-methyl-[1,2,4]triazolo[1,5-a]pyrimidin-7-yl)-[2-(4-methoxy-phenyl)-ethyl]-amine], with 8.3 µM.
The same measure, in the same setting: then `COc1ccc(S(=O)(=O)N2CCN(c3ccc(C)cc3C)CC2)cc1OC` [1-(3,4-dimethoxyphenyl)sulfonyl-4-(2,4-dimethylphenyl)piperazine], with 6.58 µM.
In turn, `O=C(c1cc(-c2ccc(O)cc2)on1)N1CCc2ccccc2C1` [4-[3-(3,4-dihydro-1H-isoquinolin-2-ylcarbonyl)-2H-1,2-oxazol-5-ylidene]cyclohexa-2,5-dien-1-one] registered an EC50 of 5.24 µM.
The same measure, in the same setting: under `COC(=O)c1cc(CSc2nnc(-c3ccccc3)c(-c3ccccc3)n2)oc1C` [5-[[(5,6-diphenyl-1,2,4-triazin-3-yl)thio]methyl]-2-methyl-3-furancarboxylic acid methyl ester] stands 1.73 µM; under `Cc1nc2sccn2c1-c1csc(NCc2ccccc2)n1` [4-(6-methyl-5-imidazo[2,1-b]thiazolyl)-N-(phenylmethyl)-2-thiazolamine], 2.77 µM.
Compound `CCOC(=O)c1sc2nc(NC(=O)C3CCCCC3)sc2c1C` [2-(cyclohexanecarbonylamino)-6-methyl-thieno[2,3-d]thiazole-5-carboxylic acid ethyl ester] returned an EC50 of more than 30 µM.
Still for that read-out and setting: under `Cc1ccc(N2C(=O)c3cccc4c(N5CCN(C)CC5)ccc(c34)C2=O)c2cccnc12` [6-(4-methyl-1-piperazinyl)-2-(8-methyl-5-quinolinyl)-1H-benzo[de]isoquinoline-1,3(2H)-dione] stands more than 30 µM.
On the same count and under the same terms, then `CCOc1ccc(-c2noc(-c3ccncc3)n2)cc1OCC` [3-(3,4-diethoxyphenyl)-5-(4-pyridyl)-1,2,4-oxadiazole], with 0.613 µM; and `Nc1ccc(N2CCOCC2)c(Cl)c1` [(3-chloro-4-morpholino-phenyl)amine], with 1.18 µM.
Compound `O=S(=O)(C/C(=C/CO)S(=O)(=O)c1ccccc1)c1ccccc1` [(Z)-3,4-bis(benzenesulfonyl)but-2-en-1-ol] returned an EC50 of more than 3 µM.
Same read-out and setting: then `COCCn1c(C)cc(C(=O)CSc2nnc(-c3cccnc3)n2-c2ccccc2F)c1C` [2-[[4-(2-fluorophenyl)-5-(3-pyridinyl)-1,2,4-triazol-3-yl]thio]-1-[1-(2-methoxyethyl)-2,5-dimethyl-3-pyrrolyl]ethanone], with 1.87 µM; and `CCCc1ccc(Oc2c[nH]nc2-c2ccc(O)cc2O)cc1` [(4E)-3-hydroxy-4-[4-(4-propylphenoxy)-1,2-dihydropyrazol-3-ylidene]-1-cyclohexa-2,5-dienone], with 15.5 µM.
Same read-out and setting: then `Oc1ccc(-c2nc(-c3ccc(O)c(O)c3)cs2)cc1`, with 12 µM; and `COc1ccccc1Oc1ccc2c(c1)C(=O)N(c1cccc(O)c1)C2=O` [2-(3-hydroxyphenyl)-5-(2-methoxyphenoxy)isoindole-1,3-dione], with 2.36 µM; and `Cc1sc2ncnc(Sc3nnnn3-c3ccccc3)c2c1C` [5,6-dimethyl-4-(1-phenyltetrazol-5-yl)sulfanylthieno[2,3-d]pyrimidine], with more than 95 µM.
Regarding `Cc1oc(-c2ccccc2)nc1Cn1cccc1C1=NC(c2ccccc2)CO1` (stereo not given) [SMR000026251], the EC50 was determined as 0.922 µM.
On to `Cc1ccc2c(c1)N(CC(=O)Nc1ccc3c(c1)OCCO3)C(=O)CO2` [MLS000074457], for which the EC50 was more than 95 µM.
Still for that read-out and setting: then `CCc1cc2c(N3CCN(c4ccccc4)CC3)ncnc2s1` [6-ethyl-4-(4-phenyl-1-piperazinyl)thieno[2,3-d]pyrimidine], with 6.61 µM; and `CCOC(=O)c1c(C)[nH]c(C(=O)C(C)OC(=O)c2cccc(OCc3c(C)noc3C)c2)c1C` (stereo not given) [MLS000054923], with 4.37 µM.
Same read-out and setting: then `Cc1ccc(-c2nc(CSCC(=O)N3CCN(c4ccccn4)CC3)c(C)o2)cc1` [2-[[5-methyl-2-(4-methylphenyl)-1,3-oxazol-4-yl]methylsulfanyl]-1-(4-pyridin-2-ylpiperazin-1-yl)ethanone], with 5.51 µM; and `c1ccc(CNc2ncnc3ccccc23)cc1` [N-benzylquinazolin-4-amine], with 4.81 µM.
On to `CCN=c1scc(-c2ccc3c(c2)NC(=O)CO3)n1N=C1CCCC1` [MLS000054638], for which a half-maximal response (EC50) required 8.6 µM.
`O=C(Nc1c(F)cc(F)cc1Br)c1cc(-c2ccc(O)cc2)on1` [MLS000116264] displayed an EC50 of 2.37 µM.
Same read-out and setting: then `Cc1nnc2ccc(Oc3ccc(-c4ccccc4)cc3)nn12` [3-methyl-6-(4-phenylphenoxy)-[1,2,4]triazolo[4,3-b]pyridazine], with 5.08 µM; and `COc1cc(-c2noc(C3CCCN(S(=O)(=O)c4cccc(Cl)c4)C3)n2)cc(OC)c1OC` (stereo not given) [1-(3-Chloro-benzenesulfonyl)-3-[3-(3,4,5-trimethoxy-phenyl)-[1,2,4]oxadiazol-5-yl]-piperidine], with 3.83 µM; and `CC(C)c1ccc2oc(-c3cc(N)ccc3O)nc2c1` [(6E)-4-amino-6-(5-isopropyl-3H-1,3-benzoxazol-2-ylidene)cyclohexa-2,4-dien-1-one], with 9.37 µM.
The same measure, in the same setting: under `O=C(CSc1nnc(-c2c[nH]c3ccccc23)o1)N(Cc1ccccc1)c1ccc(F)cc1` stands 1.02 µM; under `CCOc1cc(C2NCc3ccccc3-n3cccc32)ccc1O` (stereo not given) [4-(5,6-dihydro-4H-pyrrolo[1,2-a][1,4]benzodiazepin-4-yl)-2-ethoxy-phenol;hydrochloride], 16.1 µM; under `CCCCNc1cc(C)nc(NCc2ccccc2)n1` [2-N-benzyl-4-N-butyl-6-methylpyrimidine-2,4-diamine], 4.83 µM.
On the same count and under the same terms, then `Cc1cc(C(=O)CSc2nnc(-c3cccs3)o2)c(C)n1-c1ccccc1` [1-(2,5-dimethyl-1-phenyl-3-pyrrolyl)-2-[(5-thiophen-2-yl-1,3,4-oxadiazol-2-yl)thio]ethanone], with 4.66 µM.

Still in this test, the particulars now being: inactive by the depositor's call.
As to `CC1CCc2nc(NC(=O)CSc3nc4ccccc4o3)sc2C1` (stereo not given) [2-(1,3-benzoxazol-2-ylsulfanyl)-N-(6-methyl-4,5,6,7-tetrahydro-1,3-benzothiazol-2-yl)acetamide], the EC50 amounted to 57.8 µM.
The same measure, in the same setting: then `Clc1ccc(CSc2nnc(-c3ccncc3)o2)c(Cl)c1` [2-[(2,4-dichlorobenzyl)thio]-5-(4-pyridyl)-1,3,4-oxadiazole], with 41.8 µM; and `COc1ccc2c(c1)CCc1c(C(=O)NC3CCCCC3)noc1-2` [MLS000087437], with 95 µM; and `CCN(CC)S(=O)(=O)c1cc(C(=O)Nc2ccncc2)ccc1Cl` [4-chloranyl-3-(diethylsulfamoyl)-N-pyridin-4-yl-benzamide], with 52.3 µM.
Still for that read-out and setting: then `CCCCOc1ccc(S(=O)(=O)Nc2cc(OC)ccc2OC)cc1` [4-butoxy-N-(2,5-dimethoxyphenyl)benzenesulfonamide], with 12.9 µM; and `O=C(Nc1nc(-c2nc3ccccc3s2)cs1)c1ccc(S(=O)(=O)N2CCOCC2)cc1` [MLS000087900], with 17.6 µM; and `c1ccc(CSc2nnc(-c3cccs3)o2)cc1` [2-(benzylthio)-5-(2-thienyl)-1,3,4-oxadiazole], with 20.9 µM.
Same read-out and setting: then `Cc1nn(Cc2ccc(Cl)c(Cl)c2)c(C)c1NC(=O)c1cc(C2CC2)on1` [5-cyclopropyl-N-[1-(3,4-dichlorobenzyl)-3,5-dimethyl-pyrazol-4-yl]isoxazole-3-carboxamide], with 10.6 µM; and `CC(=O)Nc1ccc(S(=O)(=O)N2CCN(CCCOc3cc(C)ccc3C)CC2)cc1` [MLS000050317], with 15.2 µM; and `CC1=CC(C)(C)Nc2ccc(OC(=O)c3ccco3)cc21`, with 13.3 µM.
Compound `COc1cccc(-c2nnc3sc(C4CCCCC4)nn23)c1` [6-cyclohexyl-3-(3-methoxyphenyl)-[1,2,4]triazolo[3,4-b][1,3,4]thiadiazole] showed an EC50 of 17.4 µM.
`COc1ccc(-n2c(C)cc(C(=O)COC(=O)Cn3cnc4ccccc43)c2C)cc1` [2-(1-benzimidazolyl)acetic acid [2-[1-(4-methoxyphenyl)-2,5-dimethyl-3-pyrrolyl]-2-oxoethyl] ester] had an EC50 of 10.3 µM.
The same measure, in the same setting: under `CCOC(=O)Cc1csc(NC(=O)c2ccc(Br)s2)n1` [2-[2-[(5-bromothiophene-2-carbonyl)amino]thiazol-4-yl]acetic acid ethyl ester] stands 13.8 µM.
